# What was measured:
# [1] = Ability to inhibit LPS-stimulated TNF production in THP-1 cells at 3 uM concentration; format: functional; settings: Homo sapiens
# [2] = target: Disintegrin and metalloproteinase domain-containing protein 17 (Homo sapiens, UniProt P78536); test: Inhibitory activity against Tumor necrosis factor alpha converting enzyme
# Interstitial collagenase = target: T1, Interstitial collagenase (Homo sapiens, UniProt P03956); test: In vitro inhibitory activity against matrix metalloprotease-1
# T1 sequence (P03956 whole entry): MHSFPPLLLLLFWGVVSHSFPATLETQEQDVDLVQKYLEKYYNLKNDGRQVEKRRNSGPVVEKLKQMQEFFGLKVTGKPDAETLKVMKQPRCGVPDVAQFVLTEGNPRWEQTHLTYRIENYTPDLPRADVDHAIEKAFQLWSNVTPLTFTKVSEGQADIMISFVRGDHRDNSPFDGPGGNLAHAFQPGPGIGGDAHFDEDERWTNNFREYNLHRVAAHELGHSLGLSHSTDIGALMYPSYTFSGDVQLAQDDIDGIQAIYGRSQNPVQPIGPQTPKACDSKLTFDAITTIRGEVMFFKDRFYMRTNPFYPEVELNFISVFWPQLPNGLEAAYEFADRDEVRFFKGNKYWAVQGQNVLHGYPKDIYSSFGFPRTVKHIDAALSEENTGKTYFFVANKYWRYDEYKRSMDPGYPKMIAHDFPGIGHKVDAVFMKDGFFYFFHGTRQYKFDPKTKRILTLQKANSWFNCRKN
# Collagenase 3 = Collagenase 3 (Homo sapiens, UniProt P45452); test: In vitro inhibitory activity against matrix metalloprotease-13
# [3] = target: T2, Interstitial collagenase (Homo sapiens) (UniProt P03956); test: In vitro inhibitory activity against matrix metallo proteinase-1 at 1 uM concentration
# T2 sequence (whole entry): T1 sequence (P03956 whole entry)
# Disintegrin and metalloproteinase domain-containing protein 17, sequence (P78536 whole entry, the tested form may be a part): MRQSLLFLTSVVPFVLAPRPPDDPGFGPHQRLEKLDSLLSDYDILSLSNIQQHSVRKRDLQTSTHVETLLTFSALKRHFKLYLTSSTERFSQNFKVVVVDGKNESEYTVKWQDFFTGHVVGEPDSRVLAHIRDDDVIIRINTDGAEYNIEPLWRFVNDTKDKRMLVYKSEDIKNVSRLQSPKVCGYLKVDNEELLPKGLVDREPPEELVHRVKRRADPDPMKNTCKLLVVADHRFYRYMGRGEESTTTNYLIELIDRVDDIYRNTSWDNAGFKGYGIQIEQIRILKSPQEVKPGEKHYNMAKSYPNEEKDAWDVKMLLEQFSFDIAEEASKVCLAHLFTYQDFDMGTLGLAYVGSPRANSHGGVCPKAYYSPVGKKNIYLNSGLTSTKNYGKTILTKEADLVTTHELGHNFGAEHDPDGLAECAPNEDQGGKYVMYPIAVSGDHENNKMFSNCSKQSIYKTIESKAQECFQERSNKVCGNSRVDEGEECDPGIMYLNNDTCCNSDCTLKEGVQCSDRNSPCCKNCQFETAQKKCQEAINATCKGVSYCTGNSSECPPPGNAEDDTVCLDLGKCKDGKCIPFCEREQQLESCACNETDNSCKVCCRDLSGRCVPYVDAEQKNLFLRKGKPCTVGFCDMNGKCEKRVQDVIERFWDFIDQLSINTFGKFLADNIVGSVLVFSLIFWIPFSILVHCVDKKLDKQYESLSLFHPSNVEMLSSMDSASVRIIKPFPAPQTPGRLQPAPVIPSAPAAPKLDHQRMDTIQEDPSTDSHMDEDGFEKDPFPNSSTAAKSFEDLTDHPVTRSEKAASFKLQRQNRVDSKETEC
SMILES,inhibition at 3 µM [1],IC50 [2],IC50 (Interstitial collagenase),IC50 (Collagenase 3),inhibition [3]
CC#CCOc1ccc(S(=O)(=O)N2Cc3ccccc3N(C(C)=O)CC2C(=O)NO)cc1 (configuration not stated),60%,,,,
CC#CCOc1ccc(S(=O)(=O)N2Cc3ccc(C(=O)NC)cc3N(C(C)=O)CC2C(=O)NO)cc1 (configuration not stated),64%,41 nM,813 nM,42 nM,
CC#CCOc1ccc(S(=O)(=O)N2Cc3ccccc3N(C(=O)c3cccnc3)CC2C(=O)NO)cc1 (configuration not stated),33%,89 nM,238 nM,19 nM,
CC#CCOc1ccc(S(=O)(=O)N2Cc3cc(NCCc4ccccn4)ccc3N(C(C)=O)CC2C(=O)NO)cc1 (configuration not stated),44%,49 nM,,47 nM,30%
CC#CCOc1ccc(S(=O)(=O)N2Cc3ccc(CN4CCNCC4)cc3N(C(C)=O)CC2C(=O)NO)cc1 (configuration not stated),72%,14 nM,483 nM,17 nM,
CC#CCOc1ccc(S(=O)(=O)N2Cc3ccccc3N(C(=O)COC)CC2C(=O)NO)cc1 (configuration not stated),73%,81 nM,853 nM,97 nM,
CC#CCOc1ccc(S(=O)(=O)N2Cc3ccc(CNC(C)=O)cc3N(C(C)=O)CC2C(=O)NO)cc1 (configuration not stated),46%,31 nM,578 nM,12 nM,
CC#CCOc1ccc(S(=O)(=O)N2Cc3cc(N(C)CCc4ccccn4)ccc3N(C(C)=O)CC2C(=O)NO)cc1 (configuration not stated),82%,121 nM,,53 nM,19%
CC#CCOc1ccc(S(=O)(=O)N2Cc3cc(N4CCOCC4)ccc3N(C(C)=O)CC2C(=O)NO)cc1 (configuration not stated),73%,130 nM,1260 nM,33 nM,
CC#CCOc1ccc(S(=O)(=O)N2Cc3cc(N(C)C)ccc3N(C(C)=O)CC2C(=O)NO)cc1 (configuration not stated),33%,197 nM,682 nM,17 nM,
CC#CCOc1ccc(S(=O)(=O)N2Cc3cc(N4CCN(C)CC4)ccc3N(C(C)=O)CC2C(=O)NO)cc1 (configuration not stated),75%,92 nM,852 nM,21 nM,
CC#CCOc1ccc(S(=O)(=O)N2Cc3ccc(CO)cc3N(C(C)=O)CC2C(=O)NO)cc1 (configuration not stated),63%,12 nM,500 nM,20 nM,
CC#CCOc1ccc(S(=O)(=O)N2Cc3ccc(CNC)cc3N(C(C)=O)CC2C(=O)NO)cc1 (configuration not stated),81%,14 nM,456 nM,32 nM,
CC#CCOc1ccc(S(=O)(=O)N2Cc3ccccc3N(C(=O)c3cnccn3)CC2C(=O)NO)cc1 (configuration not stated),41%,69 nM,356 nM,20 nM,
CC#CCOc1ccc(S(=O)(=O)N2Cc3ccccc3N(C(=O)c3ccco3)CC2C(=O)NO)cc1 (configuration not stated),74%,,,,
CC#CCOc1ccc(S(=O)(=O)N2Cc3cc(OCCc4ccccc4)ccc3N(C(C)=O)CC2C(=O)NO)cc1 (configuration not stated),83%,36 nM,,28 nM,45%
CC#CCOc1ccc(S(=O)(=O)N2Cc3ccc(CN(C)C)cc3N(C(C)=O)CC2C(=O)NO)cc1 (configuration not stated),70%,18 nM,904 nM,67 nM,

# Reference: ChEMBL document CHEMBL1137145, “Benzodiazepine inhibitors of the MMPs and TACE. Part 2” (Bioorg Med Chem Lett, 2004)
